Laboratory results published in patent publication US20080200532A1 (Teva Pharmaceuticals USA, Inc. for Barbados, priority 2003, published 2008).

Columns and labels:
[1] = Stability study of Form XIV, polymorph content by X-Ray Powder Diffraction analysis; type: physicochemical
Description: [table] Powder X-ray diffraction data were obtained using methods known in the art on a […] powder X-ray diffractometer model X'TRA equipped with a solid state detector. Copper radiation of 1.5418 Å was used. A round aluminum sample holder with zero background was used.

[2] = Stability studies, appearance after storage; type: physicochemical; conditions: storage at 40 EC for three months
[3] = according to the '340 patent; cited from earlier work

Polymorph content by X-Ray Powder Diffraction analysis ([1]; 25° C., 60% RH, 1 M)	Polymorph content by X-Ray Powder Diffraction analysis ([1]; 25° C., 60% RH, 2 M)	Polymorph content by X-Ray Powder Diffraction analysis ([1]; 25° C., 60% RH, 3 M)	Polymorph content by X-Ray Powder Diffraction analysis ([1]; 40° C., 75% RH, 1 M)	Polymorph content by X-Ray Powder Diffraction analysis ([1]; 40° C., 75% RH, 2 M)	Polymorph content by X-Ray Powder Diffraction analysis ([1]; 40° C., 75% RH, 3 M)	Polymorph content by X-Ray Powder Diffraction analysis ([1]; 55° C., 1 M)	Polymorph content by X-Ray Powder Diffraction analysis ([1]; 55° C., 2 M)	Polymorph content by X-Ray Powder Diffraction analysis ([1]; 55° C., 3 M)	Transformation into Form B upon storage ([1]; storage at 25, 40 and 55° C., for at least 3 months)	Polymorph content by X-Ray Powder Diffraction analysis ([1]; t = 0)	Change of appearance (white to pale yellow powder) after storage [2]	Compound	Hygroscopicity [3]
XIV	XIV	XIV	XIV	XIV	XIV	XIV	XIV	XIV	no more than 5%	XIV	does not change	CC(C)n1c(/C=C/[C@@H](O)C[C@@H](O)CC(=O)O)c(-c2ccc(F)cc2)c2ccccc21 (relative stereo) [Form XIV, [R*,S*-(E)]-(±)-7-[3-(4-fluorophenyl)-1-(1-methylethyl)-1H-indol-2-yl]-3,5-dihydroxy-6-heptenoic acid monosodium]	–
–	–	–	–	–	–	–	–	–	–	–	–	CC(C)n1c(/C=C/[C@@H](O)C[C@@H](O)CC(=O)O)c(-c2ccc(F)cc2)c2ccccc21 (racemic) [Form B, fluvastatin sodium]	low hygroscopicity
